Results published in the supplement of paper PMC7840683.
Structures can show the parent of a compound that is named as a salt. ± gives the standard deviation of the averaged measurements.

Test system: HepaRG
Assay: LDH release cytotoxicity, % of total lysis control; higher = more cytotoxic
Conditions: 48 h
How it was run: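 Eight-point half-log series of test chemicals, the highest at 100 µM, were given in duplicate for 48 h to single-lot HepaRG cells on collagen I-coated 96-well plates in serum-free induction medium with 0.5% DMSO. A Tecan Safire read resorufin fluorescence from CytoTox-ONE as a measure of LDH in 50 µL spent medium, with 0.1% Triton X in total lysis wells. Percent cytotoxicity was normalized to on-plate vehicle and total lysis controls and averaged over the duplicates.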

Work on `O=C(O)C(F)(F)C(F)(F)C(F)(F)C(F)(F)C(F)(F)C(F)(F)C(F)(F)F` [Ammonium perfluorooctanoate] yielded an LDH release cytotoxicity (0.03162 µM) of -2.46 ± 0.051%, an LDH release cytotoxicity (0.1 µM) of -2 ± 0.26% and an LDH release cytotoxicity (0.3162278 µM) of -1.7 ± 0.71%. The LDH release cytotoxicity (1 µM) was -2.4 ± 0.45%, the LDH release cytotoxicity (3.16228 µM) was -1.55 ± 0.62% and the LDH release cytotoxicity (10 µM) was -1.1 ± 0.38%. The LDH release cytotoxicity (31.6228 µM) was -0.665 ± 0.52% and the LDH release cytotoxicity (100 µM) was 5.278 ± 0.027%.

With `NC(=O)Cn1c(=O)cc(CCN2CCN(c3nccc4sccc34)CC2)c2ccc(F)cc21` [Trelanserin] the LDH release cytotoxicity (0.03162 µM) was -2.76 ± 0.59%, the LDH release cytotoxicity (0.1 µM) was -2.72 ± 0.22% and the LDH release cytotoxicity (0.3162278 µM) was -2.6 ± 0.45%. The LDH release cytotoxicity (1 µM) was -2.79 ± 0.15%, the LDH release cytotoxicity (3.16228 µM) was -2.49 ± 0.9% and the LDH release cytotoxicity (10 µM) was -3.23 ± 0.63%. For the same compound, the LDH release cytotoxicity (31.6228 µM) was -3.19 ± 0.31% and the LDH release cytotoxicity (100 µM) was 4.59 ± 0.19%.

`O=C(CCl)c1ccccc1` [2-Chloroacetophenone] gave an LDH release cytotoxicity (0.03162 µM) of -1 ± 0.077%, an LDH release cytotoxicity (0.1 µM) of -0.706 ± 0.44% and an LDH release cytotoxicity (0.3162278 µM) of 0.0478 ± 0.81%. The LDH release cytotoxicity (1 µM) was -0.336 ± 0.2%, the LDH release cytotoxicity (3.16228 µM) was -0.414 ± 0.23% and the LDH release cytotoxicity (10 µM) was 0.0717 ± 0.49%. For the same compound, the LDH release cytotoxicity (31.6228 µM) was 1.4 ± 0.058% and the LDH release cytotoxicity (100 µM) was 17.7 ± 0.94%.

Compound `CN(C)c1ccc(C(=C2C=CC(=[N+](C)C)C=C2)c2ccc(N(C)C)cc2)cc1` [Gentian Violet] has an LDH release cytotoxicity (0.03162 µM) of -1.62 ± 0.081%, an LDH release cytotoxicity (0.1 µM) of -2.46 ± 0.081% and an LDH release cytotoxicity (0.3162278 µM) of -1.86 ± 0.074%. It also gave an LDH release cytotoxicity (1 µM) of -1.96 ± 0.38%, an LDH release cytotoxicity (3.16228 µM) of 6.76 ± 0.71% and an LDH release cytotoxicity (10 µM) of 29.8 ± 0.12%. The LDH release cytotoxicity (31.6228 µM) was 51.8 ± 0.8% and the LDH release cytotoxicity (100 µM) was 54.6 ± 3.8%.

Compound `CC(C)c1ccc(C(=O)N=C(N)N)cc1S(C)(=O)=O` [Cariporide mesylate] has an LDH release cytotoxicity (0.02356 µM) of -0.0357 ± 0.59%, an LDH release cytotoxicity (0.0745 µM) of -1.69 ± 0.56% and an LDH release cytotoxicity (0.23559 µM) of -0.975 ± 1.1%. The LDH release cytotoxicity (0.745 µM) was -1.41 ± 0.45%, the LDH release cytotoxicity (2.3559 µM) was -0.944 ± 0.16% and the LDH release cytotoxicity (7.45 µM) was -0.838 ± 0.12%. For the same compound, the LDH release cytotoxicity (23.559 µM) was -1.46 ± 0.13% and the LDH release cytotoxicity (74.5 µM) was -0.256 ± 0.4%.

For `CCCCN(CC)c1c([N+](=O)[O-])cc(C(F)(F)F)cc1[N+](=O)[O-]` [Benfluralin], the LDH release cytotoxicity (0.031623 µM) was -0.0474 ± 0.18%, the LDH release cytotoxicity (0.1 µM) was -1.73 ± 1.2% and the LDH release cytotoxicity (0.316228 µM) was -1.78 ± 0.15%. It also gave an LDH release cytotoxicity (1 µM) of -2.54 ± 0.81%, an LDH release cytotoxicity (3.16228 µM) of -2.56 ± 0.43% and an LDH release cytotoxicity (10 µM) of -1.12 ± 0.72%. For the same compound, the LDH release cytotoxicity (31.6228 µM) was -1.14 ± 0.56% and the LDH release cytotoxicity (100 µM) was -0.374 ± 0.11%.

With `CC(C)=CC1C(C(=O)OCN2C(=O)C3=C(CCCC3)C2=O)C1(C)C` (centres undefined) [Tetramethrin] the LDH release cytotoxicity (0.03162 µM) was -1.77 ± 0.86%, the LDH release cytotoxicity (0.1 µM) was -1.73 ± 1% and the LDH release cytotoxicity (0.3162278 µM) was -2 ± 0.85%. It also gave an LDH release cytotoxicity (1 µM) of -2.13 ± 0.4%, an LDH release cytotoxicity (3.16228 µM) of -1.65 ± 0.066% and an LDH release cytotoxicity (10 µM) of -1.51 ± 0.38%. For the same compound, the LDH release cytotoxicity (31.6228 µM) was -0.61 ± 0.13% and the LDH release cytotoxicity (100 µM) was 0.736 ± 0.64%.

With `C1CC2OC2CC1C1CO1` (centres undefined) [4-Vinyl-1-cyclohexene dioxide] the LDH release cytotoxicity (0.03162 µM) was -0.357 ± 0.0064%, the LDH release cytotoxicity (0.1 µM) was -1.96 ± 0.94% and the LDH release cytotoxicity (0.3162278 µM) was -2.19 ± 0.42%. For the same compound, the LDH release cytotoxicity (1 µM) was -1.67 ± 0.053%, the LDH release cytotoxicity (3.16228 µM) was -1.29 ± 0.3% and the LDH release cytotoxicity (10 µM) was -1.43 ± 0.099%. For the same compound, the LDH release cytotoxicity (31.6228 µM) was -0.613 ± 1.2% and the LDH release cytotoxicity (100 µM) was 78.1 ± 2.9%.

Work on `C#CC1(O)CCC2C3CCC4=CC(=O)CCC4C3CCC21CC` (centres undefined) [Levonorgestrel] yielded an LDH release cytotoxicity (0.03162 µM) of -1.38 ± 1.4%, an LDH release cytotoxicity (0.1 µM) of -1.25 ± 1.1% and an LDH release cytotoxicity (0.3162278 µM) of -1.67 ± 1.2%. For the same compound, the LDH release cytotoxicity (1 µM) was -1.92 ± 0.3%, the LDH release cytotoxicity (3.16228 µM) was -1.95 ± 0.12% and the LDH release cytotoxicity (10 µM) was -1.02 ± 0.035%. The LDH release cytotoxicity (31.6228 µM) was -0.294 ± 1.1% and the LDH release cytotoxicity (100 µM) was 0.81 ± 0.17%.

For `Cc1cc(F)ccc1-c1cc(N2CCC(O)C2CO)ncc1N(C)C(=O)C(C)(C)c1cc(C(F)(F)F)cc(C(F)(F)F)c1` (centres undefined), the LDH release cytotoxicity (0.02577 µM) was -0.371 ± 0.69%, the LDH release cytotoxicity (0.0815 µM) was -1.04 ± 0.056% and the LDH release cytotoxicity (0.2577256 µM) was -1.11 ± 0.12%. It also gave an LDH release cytotoxicity (0.815 µM) of -0.898 ± 0.74%, an LDH release cytotoxicity (2.57726 µM) of -1.2 ± 0.34% and an LDH release cytotoxicity (8.15 µM) of -1.08 ± 0.097%. For the same compound, the LDH release cytotoxicity (25.7726 µM) was 12.91 ± 0.041% and the LDH release cytotoxicity (81.5 µM) was 86.4 ± 2.3%.

`CC(C)OC(=O)Nc1cccc(Cl)c1` [Chlorpropham] showed an LDH release cytotoxicity (0.03162 µM) of -1.82 ± 0.15%, an LDH release cytotoxicity (0.1 µM) of -0.0252 ± 1.6% and an LDH release cytotoxicity (0.3162278 µM) of -2.28 ± 0.48%. For the same compound, the LDH release cytotoxicity (1 µM) was -2.1 ± 0.63%, the LDH release cytotoxicity (3.16228 µM) was -1.45 ± 0.039% and the LDH release cytotoxicity (10 µM) was -1.72 ± 0.48%. It also gave an LDH release cytotoxicity (31.6228 µM) of -1.01 ± 0.056% and an LDH release cytotoxicity (100 µM) of 1.41 ± 0.48%.

Work on `COc1cnc(OC)n2nc(NS(=O)(=O)c3c(OCC(F)F)cccc3C(F)(F)F)nc12` [Penoxsulam] yielded an LDH release cytotoxicity (0.03162 µM) of -0.317 ± 0.26%, an LDH release cytotoxicity (0.1 µM) of -1.82 ± 0.45% and an LDH release cytotoxicity (0.3162278 µM) of -1.21 ± 0.65%. It also gave an LDH release cytotoxicity (1 µM) of -1.71 ± 0.57%, an LDH release cytotoxicity (3.16228 µM) of -0.488 ± 0.1% and an LDH release cytotoxicity (10 µM) of -0.309 ± 0.71%. The LDH release cytotoxicity (31.6228 µM) was -1.02 ± 0.03% and the LDH release cytotoxicity (100 µM) was 0.729 ± 0.1%.

`CC(C=CC1=C(C)CCCC1(C)C)=CC=CC(C)=CCO` [Retinol] gave an LDH release cytotoxicity (0.03305 µM) of -0.586 ± 0.2%, an LDH release cytotoxicity (0.1045 µM) of -1.81 ± 0.0097% and an LDH release cytotoxicity (0.330458 µM) of -1.85 ± 0.047%. The LDH release cytotoxicity (1.045 µM) was -1.97 ± 0.1%, the LDH release cytotoxicity (3.30458 µM) was -2.34 ± 0.81% and the LDH release cytotoxicity (10.45 µM) was -1.67 ± 0.32%. The LDH release cytotoxicity (33.0458 µM) was -1.8 ± 0.11% and the LDH release cytotoxicity (104.5 µM) was -1.69 ± 0.67%.

`Oc1ccccc1-c1ccccc1` [2-Phenylphenol] showed an LDH release cytotoxicity (0.0327296 µM) of -1.34 ± 0.032%, an LDH release cytotoxicity (0.1035 µM) of -1.96 ± 0.059% and an LDH release cytotoxicity (0.327296 µM) of -0.0202 ± 0.57%. For the same compound, the LDH release cytotoxicity (1.035 µM) was -0.704 ± 0.57%, the LDH release cytotoxicity (3.27296 µM) was -1.21 ± 0.68% and the LDH release cytotoxicity (10.35 µM) was 0.0213 ± 0.73%. It also gave an LDH release cytotoxicity (32.729574 µM) of -0.237 ± 0.41% and an LDH release cytotoxicity (103.5 µM) of 0.858 ± 0.56%.

For `Nc1ccc([N+](=O)[O-])cc1` [4-Nitroaniline], the LDH release cytotoxicity (0.03162 µM) was -1.77 ± 1.4%, the LDH release cytotoxicity (0.1 µM) was -2.08 ± 0.69% and the LDH release cytotoxicity (0.3162278 µM) was -1.811 ± 0.018%. It also gave an LDH release cytotoxicity (1 µM) of -1.58 ± 0.75%, an LDH release cytotoxicity (3.16228 µM) of -1.84 ± 0.43% and an LDH release cytotoxicity (10 µM) of -0.905 ± 0.22%. It also gave an LDH release cytotoxicity (31.6228 µM) of 0.842 ± 1.3% and an LDH release cytotoxicity (100 µM) of -0.219 ± 0.45%.

In the case of `NCc1cccc(C2CCN(C(=O)c3ccc(C#Cc4ccccc4F)o3)CC2)c1` [AVE5638], the LDH release cytotoxicity (0.03162 µM) is reported as 0.161 ± 0.38%, the LDH release cytotoxicity (0.1 µM) is reported as 0.0623 ± 0.48% and the LDH release cytotoxicity (0.3162278 µM) is reported as 0.0711 ± 0.39%. It also gave an LDH release cytotoxicity (1 µM) of 0.0437 ± 0.62%, an LDH release cytotoxicity (3.16228 µM) of 0.441 ± 0.0046% and an LDH release cytotoxicity (10 µM) of 0.359 ± 0.33%. For the same compound, the LDH release cytotoxicity (31.6228 µM) was 3.69 ± 0.52% and the LDH release cytotoxicity (100 µM) was 65.1 ± 7.6%.

`CC(=O)O` [Acetic acid] was tested, and the LDH release cytotoxicity (0.0317809 µM) was -1.92 ± 1.2%, the LDH release cytotoxicity (0.1005 µM) was -2.2 ± 1.2% and the LDH release cytotoxicity (0.317809 µM) was -1.18 ± 0.69%. The LDH release cytotoxicity (1.005 µM) was -1.23 ± 1.5%, the LDH release cytotoxicity (3.17809 µM) was -0.0523 ± 1.1% and the LDH release cytotoxicity (10.05 µM) was -0.22 ± 0.88%. The LDH release cytotoxicity (31.7809 µM) was -0.0673 ± 1.4% and the LDH release cytotoxicity (100.5 µM) was 1.25 ± 1.2%.

Compound `CC(C)(OOC(C)(C)c1ccccc1)c1ccccc1` [Dicumyl peroxide] has an LDH release cytotoxicity (0.03162 µM) of -3.28 ± 0.56%, an LDH release cytotoxicity (0.1 µM) of -3.3 ± 0.54% and an LDH release cytotoxicity (0.3162278 µM) of -1.36 ± 0.58%. The LDH release cytotoxicity (1 µM) was -1.54 ± 1%, the LDH release cytotoxicity (3.16228 µM) was -0.973 ± 1.9% and the LDH release cytotoxicity (10 µM) was -1.43 ± 0.79%. The LDH release cytotoxicity (31.6228 µM) was -0.756 ± 0.26% and the LDH release cytotoxicity (100 µM) was -0.201 ± 1.3%.
